Measured values from patent US6413989B1, “Piperidinylmethyloxazolidinone derivative” (Merck Patent Gesellschaft mit beschrankter Haftung, priority 1997, dated 2002).
Like-named read-outs stand apart in the source and are kept apart here.

What was measured:
rats [1] = assay: Inhibition of apomorphine-induced stereotypical behaviour in rats; format: in vivo, rat; conditions: for ED50: Rattus norvegicus, sc, read-out: Inhibition of apomorphine-induced stereotypical behaviour in rats 50% inhibition/ED50 s.c. at:
Source text: (§1) Additionally, in the binding experiment this active compound displaces tritiated ifenprodil in the forebrain of rats from its binding site (for method see Schoemaker et al., European J. Pharmacol. 176 (1990), 249-250), which represents a receptor at the N-methyl-D-aspartate (NMDA) receptor/ion channel complex as a subtype of the glutamate receptors.
2. Inhibition of apomorphine-induced stereotypical behaviour in rats (Puech et al., 1978):
Stereotypical behaviour (unmotivated sniffling, licking, chewing, rhythmic movements with the forepaws) was induced by administration of 0.5 mg/kg s.c. of apomorphine. The intensity of the ensuing stereotypical behaviour was assessed every 5 minutes for each rat for a period of 30 minutes using a rating system (0-3). The total score was used as a measure of the occurence of the stereotypical behaviour.

[2] = molecular target: T1, polyamine binding site (ifenprodil binding site at the NMDA receptor/ion channel complex) (Rattus norvegicus, UniProt P35439+Q00960); assay: Ifenprodil binding ([3H]-ifenprodil displacement, rat forebrain membranes)
T1 construct: Homogenates of rat forebrain were centrifuged repeatedly; from tissue; host or cells: rat forebrain membranes
T1 sequence (Q00960 27-1482, other chains not shown): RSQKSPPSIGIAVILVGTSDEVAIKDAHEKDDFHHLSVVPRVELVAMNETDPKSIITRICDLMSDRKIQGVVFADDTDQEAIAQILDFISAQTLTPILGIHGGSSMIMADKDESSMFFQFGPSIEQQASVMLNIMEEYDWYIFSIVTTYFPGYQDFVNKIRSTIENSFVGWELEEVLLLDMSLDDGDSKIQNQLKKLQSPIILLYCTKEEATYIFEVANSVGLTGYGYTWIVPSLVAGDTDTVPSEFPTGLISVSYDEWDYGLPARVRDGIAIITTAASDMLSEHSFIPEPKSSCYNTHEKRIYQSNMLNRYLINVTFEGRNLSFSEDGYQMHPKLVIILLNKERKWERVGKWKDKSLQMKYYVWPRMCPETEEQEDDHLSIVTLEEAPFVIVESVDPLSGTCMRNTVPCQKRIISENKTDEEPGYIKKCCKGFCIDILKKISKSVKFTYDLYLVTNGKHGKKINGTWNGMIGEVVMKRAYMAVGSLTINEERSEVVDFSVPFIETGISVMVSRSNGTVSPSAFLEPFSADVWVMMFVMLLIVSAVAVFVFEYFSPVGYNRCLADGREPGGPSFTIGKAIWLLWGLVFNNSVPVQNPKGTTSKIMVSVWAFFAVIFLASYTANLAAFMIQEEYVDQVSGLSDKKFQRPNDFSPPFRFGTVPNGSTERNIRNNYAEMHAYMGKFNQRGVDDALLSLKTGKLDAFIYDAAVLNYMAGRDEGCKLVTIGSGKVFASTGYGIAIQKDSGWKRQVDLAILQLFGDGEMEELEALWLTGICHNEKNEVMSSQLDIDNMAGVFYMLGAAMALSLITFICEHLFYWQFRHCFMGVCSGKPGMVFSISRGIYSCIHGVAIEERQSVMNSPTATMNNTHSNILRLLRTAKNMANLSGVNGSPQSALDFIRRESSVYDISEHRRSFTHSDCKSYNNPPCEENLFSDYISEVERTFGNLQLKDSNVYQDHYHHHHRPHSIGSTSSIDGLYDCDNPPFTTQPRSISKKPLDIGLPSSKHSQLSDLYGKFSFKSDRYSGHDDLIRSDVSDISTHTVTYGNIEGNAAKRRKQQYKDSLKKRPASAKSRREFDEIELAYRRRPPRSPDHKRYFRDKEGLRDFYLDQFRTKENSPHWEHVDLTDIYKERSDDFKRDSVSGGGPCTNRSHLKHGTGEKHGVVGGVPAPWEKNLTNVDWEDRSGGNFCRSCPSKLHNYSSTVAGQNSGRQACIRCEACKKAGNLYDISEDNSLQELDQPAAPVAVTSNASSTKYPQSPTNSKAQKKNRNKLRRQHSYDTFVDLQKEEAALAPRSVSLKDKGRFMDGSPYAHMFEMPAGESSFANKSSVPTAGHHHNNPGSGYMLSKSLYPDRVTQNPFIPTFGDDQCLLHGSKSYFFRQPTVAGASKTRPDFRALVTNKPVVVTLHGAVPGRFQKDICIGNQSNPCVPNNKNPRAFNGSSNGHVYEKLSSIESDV
Procedure: as §1
1. Ifenprodil binding (Schoemaker et al., 1990)
Homogenates of rat forebrain were centrifuged repeatedly. The last membrane […] (10 mg/ml) was used to determine the specific binding in the presence of 1.15 nM [^3H]-ifenprodil in 5 ml of buffer solution at pH 7.4. The unspecific binding was determined in the presence of 100 μM of ifenprodil.

rats [3] = assay: Catalepsy induction in rats; format: in vivo, rat
Procedure: as §1
3. Catalepsy induction in rats (Stanley and Glick, 1976):
The occurrence of catalepsy in rats was measured by placing a hindpaw on a 3 cm high block and scoring every 5 minutes for a period of 30 minutes the time for which the rat stayed in this unnatural position using a rating system (score 0-3). The total score was used as a measure of the intensity of the catalepsy.

mice [4] = assay: Spontaneous behaviour of mice (Irwin); format: in vivo, mouse
rats [5] = assay: Conditioned avoiding reaction in rats; format: in vivo, rat
rats [6] = assay: Spontaneous behaviour of rats (Irwin); format: in vivo, rat
mice [7] = assay: Apomorphine-induced climbing behaviour in mice; format: in vivo, mouse
rats [8] = assay: Ultrasound vocalization after electric stimulation in rats; format: in vivo, rat; conditions: proof of the anxiolytic action
[9] = apomorphine 0.5 mg/kg s.c., methanesulfonate salts
[10] = rat forebrain homogenate, 1.15 nM [3H]-ifenprodil, pH 7.4, methanesulfonate salts, read-out: Ifenprodil binding in vitro 50% displacement/IC50 at:

Cc1ccc(N2C[C@H](CN3CCC(Cc4ccc(F)cc4)CC3)OC2=O)cc1 [R = CH3, reference compound]
ED50 (rats [1]; [9]): > 10 mg/kg
IC50 [2, 10]: > 1000 nM

O=C1O[C@@H](CN2CCC(Cc3ccc(F)cc3)CC2)CN1c1ccc(F)cc1 [R = F, reference compound]
ED50 (rats [1]; [9]): > 10 mg/kg
IC50 [2, 10]: > 1000 nM

COc1ccc(N2C[C@H](CN3CCC(Cc4ccc(F)cc4)CC3)OC2=O)cc1 [R = OCH3, (5S)-(−)-5-[4-(4-fluorobenzyl)-1-piperidinylmethyl]-3-(4-methoxyphenyl)-oxazolidin-2-one, reference compound]
ED50 (rats [1]; [9]): > 10 mg/kg
IC50 [2, 10]: > 1000 nM

O=C1O[C@@H](CN2CCC(Cc3ccc(F)cc3)CC2)CN1c1ccc(O)cc1 [R = OH, (5S)-(−)-5-[4-(4-fluorobenzyl)-1-piperidinylmethyl]-3-(4-hydroxyphenyl)oxazolidin-2-one]
Inhibition of apomorphine-induced stereotypical behaviour in rats 50% inhibition/ED50 s.c. at: (rats [1]; s.c., apomorphine 0.5 mg/kg s.c., methanesulfonate salts): 2.8 mg/kg
IC50 ([2]; in vitro, read-out: IC50 for the polyamine binding site): 10 nM
IC50 [2, 10]: 10 nM
Catalepsy induction Rat (rats [3]; 30 mg/kg s.c., rat, methanesulfonate salt): 0%
Catalepsy ED50 (rats [3]; in vivo animal models): > 30 mg/kg

O=C1OC(CN2CCC(Cc3ccc(F)cc3)CC2)CN1c1ccc(O)cc1 (stereo not shown) [formula I, 5-[4-(4-fluorobenzyl)piperidin-1-ylmethyl]-3-(4-hydroxy-phenyl) oxazolidin-2-one]
effect on the spontaneous behaviour of mice (mice [4]): depressive effect
apomorphine-induced stereotypical behaviour in rats (in words) (rats [1]): inhibits
conditioned avoiding reaction in rats (rats [5]): inhibits
effect on the spontaneous behaviour of rats (rats [6]): depressive effect
apomorphine-induced climbing behaviour in mice (mice [7]): inhibits
displacement of tritiated ifenprodil from its binding site ([2]; forebrain of rats): displaces
occurrence of catalepsy (in words) (rats [3]; rat, in vivo): without the occurrence of catalepsy
ultrasound vocalization after electric stimulation in rats (rats [8]): inhibits
